Values after ≈ are worked out from the molar mass of the structure shown. Like-named read-outs stand apart in the source and are kept apart here. Some results are limits rather than exact numbers.

Data set [1] can be described thus: Aqueous solubility in PBS, pH 7.4. It is filed as physicochemical. Particulars: pH 7.4 phosphate buffered saline, 24 hours, amorphous or crystalline material; for solubility at 24 h: phosphate buffered saline, pH 7.4, aqueous buffer, thermodynamic from solid, read-out: Aqu. Solubility. The method, then: Aqueous solubility of the compounds was determined by suspending excess solid (typically 0.3-0.5 mg) in PBS, pH 7.4, at a concentration of 0.5 mg/mL. The suspension was vortexed for 10-30 seconds to wet the material and stirred at 600 rpm for 24 hours. For analysis by UPLC, 150 μL aliquot sample was transferred into a […] PVDF spin filter and centrifuged at 14,000 rpm for 5 minutes. 100 μL of the filtrate was diluted with 100 μL 1:1 Acetonitrile (ACN):H2O. The resultant samples were analyzed using UPLC and quantified against a standard curve of the compound of interest dissolved in 1:1 ACN:H2O. The retains of the solids were checked by XRPD and PLM to determine if the phase of the material was crystalline or amorphous.

The test system of data set [2] is HIV-1 wild-type (R8) virus. Nature of the data set: Viral KINetics in Green cells (VIKING) assay, HIV-1 replication in MT4-GFP reporter cells. It is filed as cell-based. Particulars: MT4-GFP cells, HIV-1 wild-type (R8), read-out: Viking (10% NHS), IC50. The essentials: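 MT4-GFP cells infected overnight with HIV-1 R8 at MOI ~0.01, then added to compound plates in RPMI with 10% normal human serum; 10-point 3-fold dilutions (typically 4 μM-0.2 nM). Green cells counted at ~48 h and 72 h; reproductive ratio (72 h/48 h) gave % inhibition, IC50 by 4-parameter fit.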

Setting [3] is: Human immunodeficiency virus 1, 10% normal human serum.

As a reminder, the solubility is the dissolved amount per volume that the medium holds. Broadly, the IC50 is the midpoint of a concentration-inhibition curve. For the compound `C#C[C@]1(COC(=O)OCC23CC4CC(CC(C4)C2)C3)O[C@@H](n2ccc3c(N)nc(Cl)nc32)C[C@@H]1O` [Example 115], the solubility at 24 h in data set [1] was less than 1 µg/mL. For the same compound, the half-maximal inhibitory concentration (IC50) in data set [2] (setting [3]) was found to be 5.7 nM.

Turning to `C#C[C@]1(CO)O[C@@H](n2ccc3c(NC(=O)CCCC)nc(Cl)nc32)C[C@@H]1O` [Example 22, N-(2-chloro-7-((2R,4S,5R)-5-ethynyl-4-hydroxy-5-(hydroxymethyl)tetrahydrofuran-2-yl)-7H-pyrrolo[2,3-d]pyrimidin-4-yl)pentanamide], the solubility at 24 h in data set [1] was 362 µg/mL (≈ 921 µM). Also, in data set [2] (setting [3]), the IC50 was 199 nM.

Regarding `C#C[C@]1(CO)O[C@@H](n2ccc3c(N)nc(Cl)nc32)C[C@@H]1OC(=O)CCCCCC` [Example 58, (2R,3S,5R)-5-(4-amino-2-chloro-7H-pyrrolo[2,3-d]pyrimidin-7-yl)-2-ethynyl-2-(hydroxymethyl)tetrahydrofuran-3-yl heptanoate], the solubility at 24 h in data set [1] is less than 1 µg/mL. Further, the IC50 in data set [2] (setting [3]) was 1.9 nM.

For the compound `C#C[C@]1(COC(=O)CCCCC)O[C@@H](n2ccc3c(N)nc(Cl)nc32)C[C@@H]1OC(C)=O` [Example 185], in data set [1], the solubility at 24 h was 4.2 µg/mL (≈ 9.36 µM). Also, the IC50 in data set [2] (setting [3]) came out at 17 nM.

For `C#C[C@]1(COC(=O)Cc2ccc(Br)cc2)O[C@@H](n2ccc3c(N)nc(Cl)nc32)C[C@@H]1O` [Example 73, ((2R,3S,5R)-5-(4-amino-2-chloro-7H-pyrrolo[2,3-d]pyrimidin-7-yl)-2-ethynyl-3-hydroxytetrahydrofuran-2-yl)methyl 2-(4-bromophenyl)acetate], in data set [1], the solubility at 24 h is 24 µg/mL (≈ 47.5 µM). In addition, the IC50 in data set [2] (setting [3]) stood at 3.2 nM.

On to `C#C[C@]1(COC(=O)Cc2ccc(Cl)cc2)O[C@@H](n2ccc3c(N)nc(Cl)nc32)C[C@@H]1OC(=O)Cc1ccc(Cl)cc1` [Example 34, (2R,3S,5R)-5-(4-amino-2-chloro-7H-pyrrolo[2,3-d]pyrimidin-7-yl)-2-((2-(4-chlorophenyl)acetoxy)methyl)-2-ethynyltetrahydrofuran-3-yl 2-(4-chlorophenyl)acetate], for which, in data set [1], the solubility at 24 h was less than 1 µg/mL. Also, the 50% inhibitory concentration (IC50) in data set [2] (setting [3]) turned out to be 6.1 nM.

Consider `C#C[C@]1(CO)O[C@@H](n2ccc3c(N)nc(Cl)nc32)C[C@@H]1OC(=O)OCCc1ccccc1` [Example 64, (2R,3S,5R)-5-(4-amino-2-chloro-7H-pyrrolo[2,3-d]pyrimidin-7-yl)-2-ethynyl-2-(hydroxymethyl)tetrahydrofuran-3-yl phenethyl carbonate], for which, in data set [1], the solubility at 24 h is less than 1 µg/mL. The IC50 in data set [2] (setting [3]) is 4.6 nM.

As to `C#C[C@]1(COC(=O)OCc2ccccc2)O[C@@H](n2ccc3c(N)nc(Cl)nc32)C[C@@H]1OC(=O)OCCCCCC` [Example 68, ((2R,3S,5R)-5-(4-amino-2-chloro-7H-pyrrolo[2,3-d]pyrimidin-7-yl)-2-ethynyl-3-(((hexyloxy)carbonyl)oxy)tetrahydrofuran-2-yl)methylbenzyl carbonate], in data set [1], the solubility at 24 h is less than 1 µg/mL. Also, in data set [2] (setting [3]), the IC50 was 6.5 nM.

On to `C#C[C@]1(CO)O[C@@H](n2ccc3c(N)nc(Cl)nc32)C[C@@H]1OC(=O)OCCCCCCCCCC` [Example 10, (2R,3S,5R)-5-(4-amino-2-chloro-7H-pyrrolo[2,3-d]pyrimidin-7-yl)-2-ethynyl-2-(hydroxymethyl)tetrahydrofuran-3-yl decyl carbonate], for which the solubility at 24 h in data set [1] is less than 1 µg/mL. The IC50 in data set [2] (setting [3]) turned out to be 9.9 nM.

In the case of `C#C[C@]1(CO)O[C@@H](n2ccc3c(N)nc(Cl)nc32)C[C@@H]1OC(=O)OCCCCCCC` [Example 153], the solubility at 24 h in data set [1] is less than 1 µg/mL. The IC50 in data set [2] (setting [3]) was determined as 3.8 nM.

`C#C[C@]1(CO)O[C@@H](n2ccc3c(N)nc(Cl)nc32)C[C@@H]1OC(=O)OCc1oc(=O)oc1C` [Example 56, (2R,3S,5R)-5-(4-amino-2-chloro-7H-pyrrolo[2,3-d]pyrimidin-7-yl)-2-ethynyl-2-(hydroxymethyl)tetrahydrofuran-3-yl((5-methyl-2-oxo-1,3-dioxol-4-yl)methyl) carbonate]: the solubility at 24 h in data set [1] was found to be 122 µg/mL (≈ 262 µM). Besides, the IC50 in data set [2] (setting [3]) worked out at 2.3 nM.

Turning to `C#C[C@]1(CO)O[C@@H](n2ccc3c(N)nc(Cl)nc32)C[C@@H]1OC(=O)C(CCC)CCC` [Example 52, (2R,3S,5R)-5-(4-amino-2-chloro-7H-pyrrolo[2,3-d]pyrimidin-7-yl)-2-ethynyl-2-(hydroxymethyl)tetrahydrofuran-3-yl 2-propylpentanoate], the solubility at 24 h in data set [1] was determined as 2.4 µg/mL (≈ 5.52 µM). The IC50 in data set [2] (setting [3]) is 337 nM.

`C#C[C@]1(COC(=O)Oc2ccccc2)O[C@@H](n2ccc3c(N)nc(Cl)nc32)C[C@@H]1O` [Example 17, ((2R,3S,5R)-5-(4-amino-2-chloro-7H-pyrrolo[2,3-d]pyrimidin-7-yl)-2-ethynyl-3-hydroxytetrahydrofuran-2-yl)methyl phenyl carbonate]: the solubility at 24 h in data set [1] was determined as 164 µg/mL (≈ 382 µM). In data set [2] (setting [3]), the IC50 turned out to be 1.4 nM.

Turning to `C#C[C@]1(COP(=O)(N[C@@H](C)C(=O)OC(C)C)Oc2ccc3ccccc3c2)O[C@@H](n2ccc3c(N)nc(Cl)nc32)C[C@@H]1O` (stereo partly shown) [Example 76], the “Aqu. Solubility” value in data set [1] is 23 µg/mL. The IC50 in data set [2] (10% normal human serum) worked out at 31 nM.

As for `C#C[C@]1(CO)O[C@@H](n2ccc3c(N)nc(Cl)nc32)C[C@@H]1OC(=O)OCCOC(C)=O` [Example 156], the solubility at 24 h in data set [1] stood at 66 µg/mL (≈ 150 µM). Besides, the IC50 in data set [2] (setting [3]) was 3.2 nM.

Take `C#C[C@]1(CO)O[C@@H](n2ccc3c(N)nc(Cl)nc32)C[C@@H]1OC(=O)CCCc1ccccc1` [Example 60, (2R,3S,5R)-5-(4-amino-2-chloro-7H-pyrrolo[2,3-d]pyrimidin-7-yl)-2-ethynyl-2-(hydroxymethyl)tetrahydrofuran-3-yl 4-phenylbutanoate]: the solubility at 24 h in data set [1] was less than 1 µg/mL. In data set [2] (setting [3]), the IC50 was determined as 3.5 nM.

Take `C#C[C@]1(COC(=O)CCCCCCCCC)O[C@@H](n2ccc3c(N)nc(Cl)nc32)C[C@@H]1O` [Example 20, ((2R,3S,5R)-5-(4-amino-2-chloro-7H-pyrrolo[2,3-d]pyrimidin-7-yl)-2-ethynyl-3-hydroxytetrahydrofuran-2-yl)methyl decanoate]: in data set [1], the solubility at 24 h was less than 1 µg/mL. The IC50 in data set [2] (setting [3]) turned out to be 2.8 nM.

`C#C[C@]1(CO)O[C@@H](n2ccc3c(N)nc(Cl)nc32)C[C@@H]1OC(=O)OC(CC)CC` [Example 84]: the solubility at 24 h in data set [1] was found to be 69 µg/mL (≈ 163 µM). The IC50 in data set [2] (setting [3]) was 129 nM.

As to `C#C[C@]1(COCOC(=O)OCCCCCCCCCCCC)O[C@@H](n2ccc3c(N)nc(Cl)nc32)C[C@@H]1O` [Example 134], the solubility at 24 h in data set [1] was less than 1 µg/mL. The IC50 in data set [2] (setting [3]) is 3.7 nM.

In the case of `C#C[C@]1(COC(=O)OCc2ccccc2)O[C@@H](n2ccc3c(N)nc(Cl)nc32)C[C@@H]1OC(=O)OCc1ccccc1` [Example 214], in data set [1], the solubility at 24 h is less than 1 µg/mL. In addition, in data set [2] (setting [3]), the IC50 was 4.7 nM.

Regarding `C#C[C@]1(CO)O[C@@H](n2ccc3c(N)nc(Cl)nc32)C[C@@H]1OC(C)=O` [Example 180], the solubility at 24 h in data set [1] amounted to 257 µg/mL (≈ 733 µM). Further, in data set [2] (setting [3]), the IC50 is 27 nM.

With `C#C[C@]1(CO)O[C@@H](n2ccc3c(N)nc(Cl)nc32)C[C@@H]1OC(=O)OCCCC` [Example 82], the solubility at 24 h in data set [1] came out at 11 µg/mL (≈ 26.9 µM). The IC50 in data set [2] (setting [3]) stood at 4 nM.

On to `C#C[C@]1(CO)O[C@@H](n2ccc3c(N)nc(Cl)nc32)C[C@@H]1OC(=O)OCC(CC)CC` [Example 78], for which the solubility at 24 h in data set [1] amounted to 2 µg/mL (≈ 4.58 µM). Besides, in data set [2] (setting [3]), the IC50 came out at 6.7 nM.

As for `C#C[C@]1(CO)O[C@@H](n2ccc3c(N)nc(Cl)nc32)C[C@@H]1OC(=O)CC` [Example 65, (2R,3S,5R)-5-(4-amino-2-chloro-7H-pyrrolo[2,3-d]pyrimidin-7-yl)-2-ethynyl-2-(hydroxymethyl)tetrahydrofuran-3-yl propionate], in data set [1], the solubility at 24 h was 224 µg/mL (≈ 614 µM). In addition, in data set [2] (setting [3]), the IC50 is 26 nM.

As to `C#C[C@]1(COC(=O)OCc2oc(=O)oc2C)O[C@@H](n2ccc3c(N)nc(Cl)nc32)C[C@@H]1OC(=O)OCc1oc(=O)oc1C` [Example 53, ((2R,3S,5R)-5-(4-amino-2-chloro-7H-pyrrolo[2,3-d]pyrimidin-7-yl)-2-ethynyl-3-((((5-methyl-2-oxo-1,3-dioxol-4-yl)methoxy)carbonyl)oxy)tetrahydrofuran-2-yl)methyl ((5-methyl-2-oxo-1,3-dioxol-4-yl)methyl) carbonate], the solubility at 24 h in data set [1] is less than 1 µg/mL. Besides, the IC50 in data set [2] (setting [3]) came to 1.7 nM.

On to `C#C[C@]1(COC(=O)OCCCCCCCCC)O[C@@H](n2ccc3c(N)nc(Cl)nc32)C[C@@H]1O` [Example 126], for which the solubility at 24 h in data set [1] came to 21 µg/mL (≈ 43.8 µM). Also, the IC50 in data set [2] (setting [3]) came to 2.6 nM.

As to `C#C[C@]1(COC(=O)OCc2cccnc2)O[C@@H](n2ccc3c(N)nc(Cl)nc32)C[C@@H]1CC(=O)CCCc1ccccc1` [Example 173], in data set [1], the solubility at 24 h was less than 1 µg/mL. Besides, the IC50 in data set [2] (setting [3]) came out at 6.2 nM.

For `C#C[C@]1(CO)O[C@@H](n2ccc3c(N)nc(Cl)nc32)C[C@@H]1OC(=O)OCc1ccccc1` [Example 27, (2R,3S,5R)-5-(4-amino-2-chloro-7H-pyrrolo[2,3-d]pyrimidin-7-yl)-2-ethynyl-2-(hydroxymethyl)tetrahydrofuran-3-ylbenzyl carbonate], the solubility at 24 h in data set [1] is less than 1 µg/mL. Moreover, in data set [2] (setting [3]), the IC50 came to 3.1 nM.

Consider `C#C[C@]1(CO)O[C@@H](n2ccc3c(N)nc(Cl)nc32)C[C@@H]1OC(=O)OCCCCCCCC` [Example 79], for which, in data set [1], the solubility at 24 h was less than 1 µg/mL. For the same compound, the IC50 in data set [2] (setting [3]) came to 4.3 nM.

Source of the values: patent US20240287124A1, “PRODRUGS OF 4'-SUBSTITUTED NUCLEOSIDE REVERSE TRANSCRIPTASE INHIBITORS” (Merck Sharp & Dohme LLC, priority 2023, published 2024).
